Measurements from patent publication US10577371B2, “Small molecule histone methyltransferase SUV39H1 inhibitor and uses thereof” (Augusta University Research Institute, Inc., priority 2017, dated 2020).

What was measured:
AB1-HA tumor model = conditions: CTX treatment at Day 9; cited from earlier work
[1] = target: T1, recombinant human SUV39H1 (Homo sapiens, UniProt O43463); experiment: HMTase EC50 assay with recombinant human SUV39H1 (Reaction Biology Corp.); assay type: biochemical; conditions: 10-dose, 3-fold serial dilutions; S-(methyl-3H) Adenosyl-L-Methionine; H3 peptide (N1-21); read-out: EC50 against recombinant human SUV39H1 in vitro
T1 construct: purchased Reaction Biology Corp. (Malvern Pa.)
T1 sequence (O43463 1-412): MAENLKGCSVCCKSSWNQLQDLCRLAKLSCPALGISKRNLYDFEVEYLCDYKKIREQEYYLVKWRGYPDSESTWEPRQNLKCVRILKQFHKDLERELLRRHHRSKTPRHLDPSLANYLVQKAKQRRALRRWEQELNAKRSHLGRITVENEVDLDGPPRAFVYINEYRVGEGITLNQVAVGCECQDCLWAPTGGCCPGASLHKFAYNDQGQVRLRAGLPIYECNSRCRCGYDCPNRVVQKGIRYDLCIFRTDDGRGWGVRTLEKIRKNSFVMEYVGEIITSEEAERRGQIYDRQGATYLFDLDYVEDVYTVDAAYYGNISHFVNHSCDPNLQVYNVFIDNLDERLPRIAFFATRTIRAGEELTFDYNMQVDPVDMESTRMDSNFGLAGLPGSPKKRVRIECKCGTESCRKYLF
Protocol: F5446 was sent to Reaction Biology Corp. (Malvern Pa.) to validate its inhibitory activity and to determine its EC50 for SUV39H1. F5446 was assayed in a 10-dose EC50 mode with 3-fold serial dilutions using recombinant human SUV39H1 protein as the methyltransferase, S-(methyl-3H) Adenosyl-L-Methionine as the substrate, and H3 peptide (N1-21) as the template in the presence of indicated doses of F5446. The EC50 was calculated with Prizm Program.

SW620 and LS411N cells [2] = experiment: Apoptosis of human colon carcinoma cells, PI/annexin V flow cytometry; assay type: cell-based; conditions: 0.01, 0.05, 0.25 and 1 μM for 2 days
Protocol: SW620 and LS411N cells were cultured in the presence of F5446 at doses of 0.01, 0.05, 0.25, and 1 μM for 2 days. Cells were stained with propidium iodide (“PI”) and annexin V and analyzed for apoptosis by flow cytometry.
Apoptotic cell death was calculated as the difference between the percentage of PI^+ Annexin V^+ cells in the presence of F5446 and the percentage of PI^+ Annexin V^+ cells in the absence of F5446.

[3] = system: Fas in SW620 and LS411N cells; experiment: Fas protein level on tumor cell surface by flow cytometry; assay type: cell-based, human; conditions: 3 days, 25 and 250 nM
Protocol: SW620 and LS411N cells were cultured in the presence of F5446 for 3 days. Fas protein levels were analyzed by flow cytometry (FIG. 12A-12B).

SW620 and LS411N cells [4] = experiment: Sensitisation of colon carcinoma cells to FasL-induced apoptosis; assay type: cell-based, human; conditions: F5446 at sublethal dose plus FasL, 3 days
Protocol: SW620 and LS411N cells were cultured in the presence of F5446 and FasL, either alone or in combination, for 3 days. Cells were stained with PI and Annexin V and analyzed for apoptosis.
Apoptotic cell death was calculated as the difference between the percentage of PI^+ Annexin V^+ cells in the presence of F5446, FasL, or both and the percentage of PI^+ Annexin V+ cells in the absence of F5446 or FasL.

[5] = Toxicity of F5446 in mice: survival and serum liver enzyme profile; assay type: in vivo
Protocol: F5446 was injected into mice at a dose of 10 mg/kg body weight every 2 days for 6 days. Mouse survival was recorded. Serum was collected from the mice and analyzed for liver enzyme profiles at the University of Georgia Veterinary Diagnostic Laboratories.

[6] = system: H3K9me3 at the FAS promoter region in SW620 and LS411N cells; experiment: ChIP of H3K9me3 at the FAS promoter region in colon carcinoma cells; assay type: cell-based, human; conditions: 25 and 250 nM for 2 days
Protocol: SW620 and LS411N cells were treated with F5446 at 25, and 250 nM for 2 days and analyzed by ChIP using H3K9me3-specific antibody. The H3K9me3 antibody-immunoprecipitated DNA was amplified by PCR with FAS promoter DNA-specific primers and normalized to input genomic DNA.

[7] = system: CD3+ T cells from spleens of C57BL/6 mice; experiment: H3K9me3 ChIP and effector expression in activated CD3+ T cells; assay type: cell-based; conditions: activated mouse CD3+ T cells
Protocol: CD3^+ T cells were purified from spleens of C57BL/6 mice. The cells were stimulated in anti-CD3/CD28-coated plates for 2 days in the absence or presence of F5446 (50 nM). The resting, stimulated and treated T cells were then analyzed by ChIP (Chromatin Immunoprecipitation) with anti-H3K9me3 antibody and gene-specific PCR primers.

[8] = system: MC38 and CT26 colon carcinoma tumors; experiment: Colon carcinoma growth in vivo, MC38 in C57BL/6 and CT26 in BALB/c mice; conditions: F5446 10 mg/kg
Protocol: Two different tumor cells were injected into two different strains of mice. MC38 cells (1.5×10^5 cells/mouse) were injected to thirty C57BL/6 mice subcutaneously. CT26 cells (2×10^5 cells/mouse) were injected to thirty BALB/c mice subcutaneously. Twenty mice from each strain with relatively similar sizes of tumors were randomized into four groups at day 8 after tumor cell injection. The four groups of tumor-bearing mice were treated with IgG/solvent (control), […] (10 mg/kg), anti-PD-1 mAb ([…]), and […]+anti-PD-1 mAb, respectively, every two days for 14 days.

[9] = system: CD8+ CTLs from CT26 tumor tissues; experiment: H3K9me3 ChIP and qPCR in tumor-infiltrating CD8+ CTLs of CT26 tumor bearing mice; assay type: in vivo; conditions: CD8+ CTLs from CT26 tumors, F5446-treated mice
Protocol: CD8^+ CTLs were isolated from tumor tissues of the control and the F5446-treated groups of CT26 tumor bearing mice (from Example 13). ChIP analysis of H3K9me3 level in the promoter regions of GZMB, PRF1, FASLG and IFNG was performed. Further a qPCR analysis was performed to determine the expression levels of all four promoter regions.

[10] = background statement; cited from earlier work
[11] = mouse serum, 10 mg/kg every 2 days for 6 days
[12] = MC38/C57BL/6 and CT26/BALB/c, anti-PD-1 mAb 200 mg/mouse, every two days for 14 days

For `O=P1(N(CCCl)CCCl)NCCCO1` (stereo not shown) [CTX, Cyclophosphamide], the cure rate (AB1-HA tumor model) is listed as 75%.
With `COC(=O)c1cc2c(n1S(=O)(=O)c1ccc(Cl)cc1)C(=O)C(=O)c1[nH]cc(C(=O)OCc3ccccc3)c1-2` [F5446, 1-Benzyl 7-methyl 6-(4-chlorobenzenesulfonyl)-4,5-dioxo-3H,4H,5H,6H-pyrrolo[3,2-e]indole-1,7-dicarboxylate] the EC50 [1] was 496 nM, the apoptotic cell death (SW620 and LS411N cells [2]) was “induced human colon carcinoma cell death in a dose-dependent manner” and the “tumor cell surface Fas expression (MFI)” value [3] was “up-regulated tumor cell surface Fas expression”. For the same compound, the “sensitivity to FasL-induced apoptosis” value (SW620 and LS411N cells [4]) was “significantly increased human colon carcinoma cells to FasL-induced apoptosis”, the survival rate ([5]; mice, 10 mg/kg body weight every 2 days for 6 days) was 100% and the “liver enzyme profile, overall finding” value ([5]; mice, 10 mg/kg every 2 days for 6 days) was “did not cause toxic levels of liver enzymes in vivo”. For the same compound, the ALP [5, 11] was 60.3 U/L, the ALT [5, 11] was 71.3 U/L and the AST [5, 11] was 444.3 U/L. The Albumin [5, 11] was 3.3 g/dL, the Cholesterol [5, 11] was 119 mg/dL and the GGT [5, 11] was less than 3 U/L. For the same compound, the “Total Bilirubin” value [5, 11] was 0.1 mg/dL, the Total protein [5, 11] was 5.7 g/dL and the “H3K9me3 at the FAS promoter region” value [6] was “inhibits H3K9me3 at the FAS promoter region”. The “H3K9me3 levels in the promoter regions of GZMB, PRF1, FASLG and IFNG” value ([7]; F5446 50 nM, 2 days, ChIP) was “reduced H3K9me3 levels”, the “expression of GZMB, PRF1, FASLG and IFNG” value ([7]; increasing doses of F5446) was “increased expression of all four effector genes in a dose-dependent manner” and the “established tumor growth over time (tumor volume)” value [8, 12] was “suppressed the established tumor growth in a time-dependent manner”. The “tumor growth as measured by tumor size and tumor weight” value [8, 12] was “significantly reduced tumor growth”, the “expression levels of granzymeB, perforin, FasL and IFNγ in tumor tissues (qPCR)” value ([8]; tumor tissues of C57BL/6 and BALB/c mice) was “significantly increased” and the “expression levels of granzymeB, perforin, FasL and IFNγ in tumor-infiltrating CTLs (qPCR)” value [9] was “significantly increased”. For the same compound, the “H3K9me3 levels in the promoter regions of GZMB, PRF1, FASLG and IFNG in tumor-infiltrating CTLs” value ([9]; ChIP) was “decreased H3K9me3 levels”.
In the case of `CN1C(=O)[C@@]23C[C@]4([C@]56C[C@@]78SS[C@@](CO)(C(=O)N7[C@H]5Nc5ccccc56)N(C)C8=O)c5ccccc5N[C@@H]4N2C(=O)[C@]1(CO)SS3` [chaetocin], the toxicity in vivo [10] is listed as “toxic in vivo”.
For `CN1C(=O)[C@]23SS[C@@]1(C)C(=O)N2[C@H]1Nc2ccccc2[C@@]1([C@@]12c4ccccc4N[C@@H]1N1C(=O)[C@@]4(C)SS[C@]1(C(=O)N4C)[C@H]2O)[C@@H]3O` [verticillin A], the toxicity in vivo [10] is listed as “toxic in vivo”.
